# Test results from ChEMBL document CHEMBL1153762, “Novel, broad-spectrum anticonvulsants containing a sulfamide group: advancement of N-((benzo[b]thien-3-yl)methyl)sulfamide (JNJ-26990990) into human clinical studies” (J Med Chem, 2009).
# The source made the active and inactive calls.
# Assays:
# [1] = Plasma concentration in rat assessed as unchanged compound remaining at 59.2 kBq/mg, po after 4 hrs by MS/MS analysis; format: ADME, organism-based; settings: read-out: Activity
# [2] = system: Plasma; assay: Metabolic stability in rat plasma assessed as formation of N-[(1-oxido-1-benzothien-3-yl)methyl]sulfamide at 59.2 kBq/mg, po after 4 hrs by MS/MS analysis; format: ADME, organism-based; settings: in vivo
# [3] = system: Plasma; assay: Metabolic stability in rat plasma assessed as formation of benzothiophene-3-carboxylic acid at 59.2 kBq/mg, po after 4 hrs by MS/MS analysis; format: ADME, organism-based; settings: in vivo
# [4] = Metabolic stability in rat urine assessed as formation of N-[(1-oxido-1-benzothien-3-yl)methyl]sulfamide at 59.2 kBq/mg, po after 24 hrs by MS/MS analysis; format: ADME, organism-based; settings: in vivo
# [5] = Metabolic stability in rat urine assessed as formation of benzothiophene-3-carboxylic acid at 59.2 kBq/mg, po after 8 to 24 hrs by MS/MS analysis; format: ADME, organism-based; settings: in vivo
# [6] = Metabolic stability in rat urine assessed as formation of [(Benzo[b]thiophene-3-carbonyl)-amino]-acetic acid at 59.2 kBq/mg, po after 8 to 24 hrs by MS/MS analysis; format: ADME, organism-based; settings: in vivo
# [7] = system: Plasma; assay: Metabolic stability in rat plasma assessed as formation of biotransformation product N-[(1-oxido-1-benzothien-3-yl)methyl]sulfamide at 500 mg, po up to 72 hrs by MS/MS analysis; format: ADME, organism-based; settings: in vivo
# [8] = Metabolic stability in rat urine assessed as formation of biotransformation product N-[(1-oxido-1-benzothien-3-yl)methyl]sulfamide at 500 mg, po up to 24 hrs by MS/MS analysis; format: ADME, organism-based; settings: in vivo
# [9] = system: Mus musculus; assay: Anticonvulsant activity against maximal electroshock-induced seizure in po dosed CF1 mouse after 1 hr; format: functional; settings: Mus musculus, CF1, po, 1 h; read-out: ED50
# [10] = system: Mus musculus; assay: Anticonvulsant activity against maximal electroshock-induced seizure in po dosed CF1 mouse after 3 hrs; format: functional
# [11] = molecular target: Carbonic anhydrase 2 (Homo sapiens, UniProt P00918); assay: Inhibition of human carbonic anhydrase 2 by fluorimetric assay
# [12] = molecular target: Carbonic anhydrase 1 (Homo sapiens, UniProt P00915); assay: Inhibition of carbonic anhydrase 1
# Carbonic anhydrase 1, sequence (P00915 whole entry): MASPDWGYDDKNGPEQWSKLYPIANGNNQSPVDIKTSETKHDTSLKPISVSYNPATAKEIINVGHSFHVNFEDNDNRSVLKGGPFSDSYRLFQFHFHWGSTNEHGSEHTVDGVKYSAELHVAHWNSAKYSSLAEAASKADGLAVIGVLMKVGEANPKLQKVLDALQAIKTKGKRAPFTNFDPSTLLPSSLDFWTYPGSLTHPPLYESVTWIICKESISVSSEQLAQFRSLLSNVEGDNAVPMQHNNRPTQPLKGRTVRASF
# [13] = system: Mus musculus; assay: Anticonvulsant activity against bicuculline-induced seizure in ip dosed CF1 mouse after 0.25 hrs; format: functional; settings: Mus musculus, CF1, ip, 0.25 h; read-out: ED50
# [14] = system: Mus musculus; assay: Anticonvulsant activity against picrotoxin-induced seizure in ip dosed CF1 mouse after 0.25 hrs; format: functional
# [15] = system: Mus musculus; assay: Anticonvulsant activity against pentylenetetrazole-induced seizure in ip dosed CF1 mouse after 0.25 hrs; format: functional; settings: Mus musculus, CF1, ip, 0.25 h; read-out: ED50
# [16] = system: Mus musculus; assay: Anticonvulsant activity against pentylenetetrazole-induced seizure in CF1 mouse assessed as increase in threshold of seizure twitch at 107 mg/kg, ip administered 15 mins before pentylenetetrazole infusion; format: functional; settings: route intraperitoneal
# [17] = system: Mus musculus; assay: Anticonvulsant activity against pentylenetetrazole-induced seizure in CF1 mouse assessed as increase in seizure threshold for clonus at 107 mg/kg, ip administered 15 mins before pentylenetetrazole infusion; format: functional; settings: route intraperitoneal
# [18] = system: Mus musculus; assay: Anticonvulsant activity against pentylenetetrazole-induced seizure in CF1 mouse assessed as increase in threshold of seizure twitch at 182 mg/kg, ip administered 15 mins before pentylenetetrazole infusion; format: functional; settings: route intraperitoneal
# [19] = system: Mus musculus; assay: Anticonvulsant activity against pentylenetetrazole-induced seizure in CF1 mouse assessed as increase in seizure threshold for clonus at 182 mg/kg, ip administered 15 mins before pentylenetetrazole infusion; format: functional; settings: route intraperitoneal
# [20] = Neurotoxicity in ip dosed mouse assessed as motor impairment by rotarod test; format: toxicity, organism-based; settings: in vivo
# [21] = Neurotoxicity in po dosed rat assessed as motor impairment by rotarod test; format: toxicity, organism-based; settings: in vivo
# [22] = system: Rattus norvegicus; assay: Anticonvulsant activity against maximal electroshock-induced seizure in po dosed Sprague-Dawley rat after 2 hrs; format: functional; settings: Rattus norvegicus, Sprague-Dawley, po, 2 h; read-out: ED50
# [23] = system: Mus musculus; assay: Anticonvulsant activity against audiogenic seizures in ip dosed AGS mouse assessed as inhibition of hindlimb tonic extension administered 1 hr prior to 11 kHz sound induction; format: functional; settings: Mus musculus, AGS, Hindlimb, ip; read-out: ED50
# [24] = system: Mus musculus; assay: Ratio of compound ED50 to topiramate ED50 for anticonvulsant activity against audiogenic seizures in ip dosed AGS mouse; format: functional
# [25] = system: Rattus norvegicus; assay: Anticonvulsant activity against electric stimulation-induced focal seizure in ip dosed Sprague-Dawley rat kindling model assessed as reduction of after-discharge duration administered 15 mins after last electric stimulation measured after 15 mins to 1 hr; format: functional; parameters: scale not given: the % may be the effect or the level left
# [26] = system: Rattus norvegicus; assay: Protective index, ratio of TD50 for neurotoxicity in po dosed rat to ED50 for anticonvulsant activity against maximal electroshock-induced seizure in po dosed rat; format: functional
# [27] = molecular target: Sodium channel protein type 2 subunit alpha (Rattus norvegicus) (UniProt P04775); assay: Inhibition of rat Nav1.2 channel expressed in chinese hamster CHL1610 cells at preconditioning pulse of -107 mV after 2 to 3 mins by whole-cell patch-clamp technique; format: cell-based
# Sodium channel protein type 2 subunit alpha (Rattus norvegicus), sequence (P04775 whole entry, looked up): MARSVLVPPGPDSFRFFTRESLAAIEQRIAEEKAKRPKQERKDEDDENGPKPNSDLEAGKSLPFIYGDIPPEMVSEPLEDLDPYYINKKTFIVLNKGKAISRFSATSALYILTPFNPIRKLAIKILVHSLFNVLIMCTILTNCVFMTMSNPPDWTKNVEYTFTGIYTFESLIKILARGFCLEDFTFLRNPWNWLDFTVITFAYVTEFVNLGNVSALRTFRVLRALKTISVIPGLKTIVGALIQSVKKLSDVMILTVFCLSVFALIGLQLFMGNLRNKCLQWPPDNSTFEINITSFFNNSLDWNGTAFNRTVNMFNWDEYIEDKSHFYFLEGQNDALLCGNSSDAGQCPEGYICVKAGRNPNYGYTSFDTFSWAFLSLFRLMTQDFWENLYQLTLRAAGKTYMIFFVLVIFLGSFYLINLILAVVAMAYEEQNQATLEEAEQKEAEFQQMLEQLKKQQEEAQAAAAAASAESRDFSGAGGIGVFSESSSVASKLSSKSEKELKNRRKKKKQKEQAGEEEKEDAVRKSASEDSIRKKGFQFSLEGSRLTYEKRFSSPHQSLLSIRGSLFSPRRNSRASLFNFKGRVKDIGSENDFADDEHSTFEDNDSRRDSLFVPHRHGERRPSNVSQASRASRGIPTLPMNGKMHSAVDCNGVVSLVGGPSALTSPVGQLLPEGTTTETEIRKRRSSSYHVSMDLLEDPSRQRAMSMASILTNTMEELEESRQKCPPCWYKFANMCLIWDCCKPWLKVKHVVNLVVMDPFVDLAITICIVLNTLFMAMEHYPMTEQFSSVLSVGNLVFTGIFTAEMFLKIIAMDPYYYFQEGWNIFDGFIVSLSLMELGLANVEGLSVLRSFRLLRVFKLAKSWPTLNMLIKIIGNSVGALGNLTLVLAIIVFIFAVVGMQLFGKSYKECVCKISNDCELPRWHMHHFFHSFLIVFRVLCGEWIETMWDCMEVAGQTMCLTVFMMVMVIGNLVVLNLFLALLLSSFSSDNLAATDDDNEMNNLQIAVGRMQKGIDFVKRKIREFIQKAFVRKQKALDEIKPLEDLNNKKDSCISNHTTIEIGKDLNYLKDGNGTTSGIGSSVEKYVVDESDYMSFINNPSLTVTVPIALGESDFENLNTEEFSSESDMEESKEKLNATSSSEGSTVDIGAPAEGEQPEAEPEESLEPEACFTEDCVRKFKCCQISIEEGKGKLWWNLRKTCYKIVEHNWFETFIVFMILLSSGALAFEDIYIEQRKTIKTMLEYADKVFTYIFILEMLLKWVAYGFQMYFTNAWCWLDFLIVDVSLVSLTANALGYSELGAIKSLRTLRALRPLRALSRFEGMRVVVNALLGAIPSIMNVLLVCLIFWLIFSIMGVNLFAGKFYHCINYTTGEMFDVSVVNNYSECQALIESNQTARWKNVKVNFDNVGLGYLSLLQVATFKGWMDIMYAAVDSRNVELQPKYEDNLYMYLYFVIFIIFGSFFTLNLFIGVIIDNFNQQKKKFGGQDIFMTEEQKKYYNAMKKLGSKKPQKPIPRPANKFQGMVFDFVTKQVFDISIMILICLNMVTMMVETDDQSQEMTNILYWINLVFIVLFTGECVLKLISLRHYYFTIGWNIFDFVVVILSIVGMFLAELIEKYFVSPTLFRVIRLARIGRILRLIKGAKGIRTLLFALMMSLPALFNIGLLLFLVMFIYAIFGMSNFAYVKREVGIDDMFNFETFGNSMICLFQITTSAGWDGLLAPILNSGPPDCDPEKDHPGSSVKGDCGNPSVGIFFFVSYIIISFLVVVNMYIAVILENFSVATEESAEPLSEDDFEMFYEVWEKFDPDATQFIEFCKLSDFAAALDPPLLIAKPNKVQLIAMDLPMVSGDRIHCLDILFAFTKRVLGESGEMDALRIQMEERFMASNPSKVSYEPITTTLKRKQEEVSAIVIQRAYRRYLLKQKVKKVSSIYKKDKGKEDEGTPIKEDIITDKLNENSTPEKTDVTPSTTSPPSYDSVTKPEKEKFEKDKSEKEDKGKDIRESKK
# [28] = molecular target: Sodium channel protein type 2 subunit alpha (Rattus norvegicus) (UniProt P04775); assay: (§1) Inhibition of rat Nav1.2 channel expressed in chinese hamster CHL1610 cells at preconditioning pulse of -67 mV after 2 to 3 mins by whole-cell patch-clamp technique; format: cell-based
# [29] = molecular target: Sodium channel protein type 2 subunit alpha (Rattus norvegicus, UniProt P04775); assay: as §1; format: cell-based
# Sodium channel protein type 2 subunit alpha, sequence (P04775 whole entry): as the sequence (P04775 whole entry, looked up) above
# [30] = molecular target: Voltage-dependent N-type calcium channel subunit alpha-1B (Rattus norvegicus) (UniProt Q02294); assay: Inhibition of rat Cav2.2 channel expressed in HEK cells assessed as depolarization-induced calcium influx by fluorescence-based assay; format: cell-based; settings: HEK293
# Voltage-dependent N-type calcium channel subunit alpha-1B (Rattus norvegicus), sequence (Q02294 whole entry, looked up): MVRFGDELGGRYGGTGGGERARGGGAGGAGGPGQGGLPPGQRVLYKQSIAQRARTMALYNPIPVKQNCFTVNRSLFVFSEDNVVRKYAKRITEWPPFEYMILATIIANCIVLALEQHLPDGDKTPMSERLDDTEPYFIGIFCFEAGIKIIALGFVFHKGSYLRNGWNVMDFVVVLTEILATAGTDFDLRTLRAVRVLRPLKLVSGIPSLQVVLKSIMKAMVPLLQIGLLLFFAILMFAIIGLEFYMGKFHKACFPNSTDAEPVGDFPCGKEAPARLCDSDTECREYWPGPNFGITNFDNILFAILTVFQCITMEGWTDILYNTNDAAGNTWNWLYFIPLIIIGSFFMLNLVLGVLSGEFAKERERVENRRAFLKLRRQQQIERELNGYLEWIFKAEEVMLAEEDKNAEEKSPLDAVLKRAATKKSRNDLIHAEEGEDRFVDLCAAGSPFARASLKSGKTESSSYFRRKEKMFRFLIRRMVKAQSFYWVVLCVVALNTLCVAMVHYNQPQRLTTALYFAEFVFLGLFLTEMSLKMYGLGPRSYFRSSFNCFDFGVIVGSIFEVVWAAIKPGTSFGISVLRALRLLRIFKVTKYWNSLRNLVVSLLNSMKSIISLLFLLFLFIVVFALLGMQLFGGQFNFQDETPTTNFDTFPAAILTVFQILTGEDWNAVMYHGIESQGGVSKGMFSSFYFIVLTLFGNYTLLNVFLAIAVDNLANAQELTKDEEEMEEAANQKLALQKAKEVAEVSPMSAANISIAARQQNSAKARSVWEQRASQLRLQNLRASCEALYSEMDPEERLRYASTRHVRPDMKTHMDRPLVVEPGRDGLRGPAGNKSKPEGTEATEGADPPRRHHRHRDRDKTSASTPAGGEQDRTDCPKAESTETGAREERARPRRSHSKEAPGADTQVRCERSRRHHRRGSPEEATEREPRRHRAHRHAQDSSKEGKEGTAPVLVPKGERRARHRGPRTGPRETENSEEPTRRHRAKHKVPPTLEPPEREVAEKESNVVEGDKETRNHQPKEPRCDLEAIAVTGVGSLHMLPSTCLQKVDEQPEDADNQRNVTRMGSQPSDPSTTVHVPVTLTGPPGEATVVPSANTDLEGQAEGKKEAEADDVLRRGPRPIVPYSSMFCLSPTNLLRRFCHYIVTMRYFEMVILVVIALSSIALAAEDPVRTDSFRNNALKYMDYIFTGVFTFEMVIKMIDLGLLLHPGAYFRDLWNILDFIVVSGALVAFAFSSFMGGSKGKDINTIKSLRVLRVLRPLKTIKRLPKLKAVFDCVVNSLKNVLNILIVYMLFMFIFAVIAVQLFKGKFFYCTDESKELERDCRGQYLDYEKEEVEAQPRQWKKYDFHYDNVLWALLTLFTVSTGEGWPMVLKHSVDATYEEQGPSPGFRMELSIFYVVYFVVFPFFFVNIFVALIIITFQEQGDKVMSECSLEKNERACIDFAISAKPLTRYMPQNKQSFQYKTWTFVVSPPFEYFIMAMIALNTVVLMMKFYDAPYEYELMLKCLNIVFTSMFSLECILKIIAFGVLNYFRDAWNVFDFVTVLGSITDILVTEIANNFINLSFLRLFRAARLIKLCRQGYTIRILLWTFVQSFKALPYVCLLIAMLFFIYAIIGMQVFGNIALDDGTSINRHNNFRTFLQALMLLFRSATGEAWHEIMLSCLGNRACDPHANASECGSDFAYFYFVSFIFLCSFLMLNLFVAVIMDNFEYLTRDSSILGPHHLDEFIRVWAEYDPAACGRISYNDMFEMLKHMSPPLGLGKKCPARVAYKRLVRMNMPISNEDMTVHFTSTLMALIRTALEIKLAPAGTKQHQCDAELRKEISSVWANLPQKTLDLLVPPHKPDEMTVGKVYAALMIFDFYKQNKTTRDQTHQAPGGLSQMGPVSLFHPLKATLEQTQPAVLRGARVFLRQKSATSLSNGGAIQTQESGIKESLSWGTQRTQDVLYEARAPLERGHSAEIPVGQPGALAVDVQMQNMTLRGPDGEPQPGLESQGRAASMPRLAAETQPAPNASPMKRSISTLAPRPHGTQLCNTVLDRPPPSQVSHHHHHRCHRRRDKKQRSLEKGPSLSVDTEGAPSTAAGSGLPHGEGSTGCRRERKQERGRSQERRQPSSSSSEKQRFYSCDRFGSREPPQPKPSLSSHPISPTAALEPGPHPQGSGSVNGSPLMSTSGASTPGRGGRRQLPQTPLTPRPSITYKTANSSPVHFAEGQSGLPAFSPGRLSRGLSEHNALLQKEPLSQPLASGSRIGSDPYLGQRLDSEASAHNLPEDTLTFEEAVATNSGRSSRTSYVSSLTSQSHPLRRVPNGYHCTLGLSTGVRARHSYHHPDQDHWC
# [31] = molecular target: Voltage-dependent N-type calcium channel subunit alpha-1B (Rattus norvegicus) (UniProt Q02294); assay: (§2) Inhibition of rat Cav2.2 channel expressed in 0.07 Hz frequency-stimulated HEK cells by whole-cell patch-clamp technique; format: cell-based; settings: HEK293
# [32] = molecular target: Voltage-dependent N-type calcium channel subunit alpha-1B (Rattus norvegicus, UniProt Q02294); assay: as §2; format: cell-based, HEK293
# Voltage-dependent N-type calcium channel subunit alpha-1B, sequence (Q02294 whole entry): as the sequence (Q02294 whole entry, looked up) above
# [33] = molecular target: Voltage-dependent N-type calcium channel subunit alpha-1B (Rattus norvegicus) (UniProt Q02294); assay: Inhibition of rat Cav2.2 channel expressed in 0.07 Hz frequency-stimulated HEK cells at 30 uM by whole-cell patch-clamp technique; format: cell-based; settings: HEK293
# [34] = molecular target: Voltage-dependent N-type calcium channel subunit alpha-1B (Rattus norvegicus) (UniProt Q02294); assay: Inhibition of rat Cav2.2 channel expressed in 5 Hz frequency-stimulated HEK cells at 30 uM by whole-cell patch-clamp technique; format: cell-based; settings: HEK293
# [35] = molecular target: Potassium voltage-gated channel subfamily KQT member 2 (Rattus norvegicus) (UniProt O88943); assay: Activation of rat Kv7.2 assessed as increase in channel current at membrane potential of -70 to -3- mV at 300 uM by whole-cell patch-clamp technique; format: cell membranes
# [36] = species: Mus musculus; assay: Inhibition of NMDA receptor in mouse cortical neuron assessed as inhibition of glycine-induced receptor current at 100 uM by whole-cell patch-clamp technique
# [37] = species: Mus musculus; assay: Inhibition of kainate receptor in mouse cortical neuron assessed as inhibition of kainic acid-induced receptor current at 100 uM by whole-cell patch-clamp technique
# [38] = species: Mus musculus; assay: Activation of GABA receptor in mouse cortical neuron assessed as increase in GABA-induced receptor current at 100 uM by whole-cell patch-clamp technique
# [39] = Metabolic stability in mouse liver microsomes assessed as compound remaining at 2 uM after 10 mins; format: ADME, Microsome; settings: read-out: Stability
# [40] = Metabolic stability in rat liver microsomes assessed as compound remaining at 2 uM after 10 mins; format: ADME, Microsome; settings: read-out: Stability
# [41] = Metabolic stability in human liver microsomes assessed as compound remaining at 2 uM after 10 mins; format: ADME, Microsome; settings: read-out: Stability
# [42] = Half life in human liver microsomes at 2 uM; format: ADME, Microsome
# [43] = Volume of distribution at steady state in mouse at 30 mg/kg, po and 3 mg/kg, iv administered as bolus dose; format: ADME, organism-based; settings: in vivo, read-out: Vdss
# [44] = Bioavailability in mouse at 30 mg/kg, po and 3 mg/kg, iv administered as bolus dose; format: ADME, organism-based; settings: in vivo
# [45] = Cmax in mouse at 30 mg/kg, po administered as bolus dose; format: ADME, organism-based; parameters: dose 30 mg/kg, route oral; settings: in vivo
# [46] = Half life in mouse at 30 mg/kg, po administered as bolus dose; format: ADME, organism-based; parameters: dose 30 mg/kg, route oral; settings: in vivo
# [47] = Half life in mouse at 3 mg/kg, iv administered as bolus dose; format: ADME, organism-based; parameters: dose 3 mg/kg, route intravenous; settings: in vivo
# [48] = Clearance in mouse at 30 mg/kg, po and 3 mg/kg, iv administered as bolus dose; format: ADME, organism-based; settings: in vivo
# [49] = Bioavailability in rat at 2 mg/kg, po; format: ADME, organism-based; settings: in vivo
# [50] = Bioavailability in rat at 10 mg/kg, po; format: ADME, organism-based; settings: in vivo
# [51] = system: Mus musculus; assay: Total body water content in mouse at 30 mg/kg, po and 3 mg/kg, iv administered as bolus dose; format: ADME, organism-based; settings: in vivo
# [52] = system: Rattus norvegicus; assay: Total body water content in rat at 2 mg/kg, iv; format: ADME, organism-based; parameters: dose 2 mg/kg, route intravenous; settings: in vivo
# [53] = Ratio of drug level in brain to plasma in rat at 30 mg/kg, po up to 6 hrs; format: ADME, organism-based; parameters: dose 30 mg/kg, route oral; settings: brain and plasma, read-out: BPR
# [54] = Plasma concentration in rat at 30 mg/kg, po after 2 hrs by LC/MS analysis; format: ADME, organism-based; parameters: dose 30 mg/kg, route oral
# [55] = Drug level in rat brain at 30 mg/kg, po after 2 hrs by LC/MS analysis; format: ADME, organism-based; parameters: dose 30 mg/kg, route oral; settings: read-out: Drug uptake
compound,measurement,setting,value
NS(=O)(=O)NCc1csc2ccccc12,remaining at 4 h,[1],60%
same,Activity,[2],31%
same,Activity,[3],9%
same,Activity,[4],48%
same,Activity,[5],0.5%
same,Activity,[6],4.2%
same,Activity,[7],78%
same,Activity,[8],46%
same,ED50,[9],107 mg/kg
same,ED50,[10],119 mg/kg
same,IC50,[11],66 µM
same,IC50,[12],25 µM
same,ED50,[13],156 mg/kg
same,ED50,[14],106 mg/kg
same,ED50,[15],161 mg/kg
same,Activity,[16],129%
same,Activity,[17],147%
same,Activity,[18],141%
same,Activity,[19],159%
same,TD50,[20],182 mg/kg
same,TD50,[21],> 500 mg/kg
same,ED50,[22],34 mg/kg
same,ED50,[23],21 mg/kg
same,Ratio ED50,[24],5
same,Activity,[25],64%
same,Ratio TD50/ED50,[26],>15
same,inhibition,[27],inactive
same,inhibition,[28],Dose-dependent effect
same,IC50,[29],48 µM
same,inhibition,[30],Dose-dependent effect
same,inhibition,[31],Dose-dependent effect
same,IC50,[32],133 µM
same,inhibition,[33],20%
same,inhibition,[34],30%
same,Activity,[35],inactive
same,inhibition,[36],23%
same,inhibition,[37],8%
same,inhibition,[38],2%
same,"remaining at 10 min, 2 µM",[39],83%
same,"remaining at 10 min, 2 µM",[40],76%
same,"remaining at 10 min, 2 µM",[41],90%
same,half-life at 2 µM,[42],> 1.67 h
same,Vd,[43],2.9 L/kg
same,bioavailability,[44],59%
same,Cmax,[45],3900 ng/mL
same,half-life,[46],1.5 h
same,half-life,[47],1.5 h
same,clearance,[48],30 mL/min/kg
same,bioavailability,[49],89%
same,bioavailability,[50],96%
same,Activity,[51],725 mL/kg
same,Activity,[52],670 mL/kg
same,Kp at 6 h,[53],2.5
same,concentration at 2 h,[54],19 µM
same,concentration at 2 h,[55],47 µM
